Data taken from patent US11905338B2, “Peptides for use as cell-penetrating peptides” (CENTRE NATIONAL DE LA RECHERCHE SCIENTIFIQUE, priority 2018, dated 2024).
Entries after “also recorded” stand apart in the source; their conditions may differ. Where no end group is shown, it is not given here. [ ]: non-standard residue; d: D form. Ahx = NCCCCCC(=O)O

What was measured:
[1] = tested on: FLuc in U937 human macrophage; assay: Luciferase silencing on non-adherent macrophage suspension; assay type: cell-based; details: 10-50 nM siRNA without CPP
Protocol: FIG. 15: Evaluation of CPP1:siRNA and CPP2:siRNA PBNs activity on cell suspensions. […] Incubation conditions: 10,000 cells/well, CPP:siRNA ratio=20:1 at the indicated siRNA concentration, incubation time 1.5 h in serum-free medium. Normalization of FLuc/NLuc values to the condition of untreated cells (N.T.). Abbreviations: siSCR=scrambled siRNA, siFLuc=firefly luciferase specific siRNA. n=2 independent experiments in triplicates. […] Incubation conditions: 10,000 cells/well, CPP:siRNA ratio=20:1 at the indicated siRNA concentration, incubation time 1.5 h in medium containing 10% serum. Normalization of FLuc/NLuc values to the condition of untreated cells (N.T.). Abbreviations: siSCR=scrambled siRNA, siFLuc=firefly luciferase specific siRNA. n=2 independent experiments in triplicates. […] Incubation conditions: 10,000 cells/well, CPP:siRNA ratio=20:1 at the indicated siRNA concentration (or the siRNA alone), incubation time 1.5 h in serum-free medium. Normalization of FLuc values to the condition of untreated cells (N.T.). n=2 independent experiments in triplicates. Next, the transfection potential of the CPP2:siFLuc on non-adherent cells such as the firefly luciferase stably transfected U937 human macrophage was evaluated (FIG. 15C). […] The silencing efficiency was determined with 40%, 80% and 100% for the siRNA concentrations of 10 nM, 20 nM and 50 nM, respectively.

[2] = Circular dichroism conformational analysis; assay type: physicochemical; details: for Conformation by circular dichroism, PEPTIDE +siRNA: CPP:siRNA molar ratio R 20, CPP 40 μM; for Conformation by circular dichroism, PEPTIDE +siRNA +charged LUVs / Conformation by circular dichroism, PEPTIDE +siRNA +neutral LUVs: R 20, CPP:lipid r 10, CPP 40 μM; for Conformation by circular dichroism, PEPTIDE: peptide free in solution, CPP 40 μM, rc = random coiled
Protocol: Circular dichroism (CD) measurements. CD spectra were recorded on a Jasco 810 (Japan) dichrograph in quartz suprasil cells (Hellma) with an optical path of 1 mm for peptide in solution or in the presence of liposomes vesicles. The same concentrations of peptide (40 μM) was used for each condition. Spectra were obtained from 3 accumulations between 190 nm and 260 nm with a data pitch of 0.5 nm, a bandwidth of 1 nm and a standard sensitivity.
The predicted structures were then compared to experimental investigations. Circular dichroism spectra were recorded for the peptides free in solution, afterwards for the peptides in the presence of siRNA and then after the addition of liposomes.

[3] = Dynamic light scattering and zeta potential of nanoparticles; assay type: physicochemical; details: for PdI / Mean size (nm) I (%) / Mean size (nm) Nb (%): CPP:siRNA R = 20, 5% glucose; for Mean size (nm) I (%): intensity; for Mean size (nm) Nb (%): number
Protocol: Dynamic light scattering (DLS) and Zeta potential (ZP). CPPs:siRNA nanoparticles were evaluated with a Zetasizer NanoZS (Malvern) in terms of mean size (Z-average) of the particle distribution and of homogeneity (PdI). Zeta potential was determined in 5% glucose+5 mM of NaCl. All results were obtained from three independent measurements (three runs for each measurement at 25° C.).

[4] = tested on: firefly luciferase (FLuc) in U87 cells; assay: Luciferase reporter gene silencing assay; assay type: cell-based, human; details: for Luciferase knock-down at R=40 relative to R=20: R=40, siFLuc 20 nM; for Incubation time for maximum and saturating FLuc silencing / Reduction of FLuc activity: 20 nM siFLuc; for Reduction in the luciferase activity in presence of serum: 10% serum, 15-20 nM siRNA (CPP1), 10-20 nM (CPP2); for Reduction of FLuc activity: 5 min incubation, then 36 h in medium; for Fold more active than C6M1-L in reduced luciferase expression / Fold more active than C6M1 in reduced luciferase expression: CPP=200 nM, siRNA=10 nM; for Activity of nanoparticles in luciferase silencing: R=20, siFLuc, compared with parent CPP
Protocol: Transfection experiments. For Luciferase assay, the different cells (5,000 cells per well) were seeded 24 h before experiment into 96-well plates using the corresponding medium as described above. […] In the meantime, the growth medium covering the cells was replaced by 70 μL of fresh pre-warmed serum-free DMEM. […] After the addition of DMEM supplemented with 20% FBS (final FBS concentration=10%), cells were further incubated for 36 h and finally lysed for the luciferase detection. For transfection in the presence of serum, cells were incubated with nanoparticles in DMEM+10% FBS for 1.5 h at 37° C., and then DMEM supplemented with 10% FBS were added to the cells which were further incubated for 36 h before the final cell lyses for the luciferase detection.
Luciferase reporter gene silencing assay. The evaluation of siRNA delivery using the different vectors was carried out by measuring the remaining luciferase firefly (FLuc) activity in cell lysates. Briefly, after 36 h, the medium covering the cells was carefully removed and replaced by 50 μL of 0.5× Passive Lysis Buffer (PLB; Promega). After 30 min of shaking at 4° C., plates containing the cells were centrifuged (10 min, 1,800 rpm, 4° C.) and 5 μL of each cell lysate supernatant were finally transferred into a white 96-well plate. For the U87-FLuc-NLuc cells, both luciferase activities were quantified using a plate-reading luminometer (POLARstar Omega, BMG Labtech) using half-diluted Dual Luciferase Assay Reagents (Promega) as reported elsewhere (G. Aldrian, et al., (2017) J. Control. Release Off. J. Control. Release Soc. 256, 79-91). The results were expressed as percentage of relative light units (RLU) for each luciferase normalized first to non-treated cells (% FLuc and % NLuc) and then normalized to the value of % NLuc to obtain the Relative Luc Activity (% FLuc/% NLuc).
Cellular activity of CPP-based nanoparticles was evaluated in a luciferase screening assay, as previously described (L. N. Patel, et al., (2007) Pharm. Res. 24, 1977-1992; A. Elmquist, et al., (2001) Exp. Cell Res. 269, 237-244)). The knock-down efficiency of the different CPP:siRNA nanoparticles was performed on U87 cell line stably transfected for constitutive expression of FLuc/NLuc reporter genes (U87-FRT-CMV/Fluc-CMV/iRFP-IRES-NLuc).

U87 cells [5] = assay: LDH cytotoxicity measurement; assay type: cell-based, human; details: incubation times 5 min to 90 min, 20 nM siFLuc
Protocol: Measurement of cell cytotoxicity. Evaluation of cytotoxicity induced by the nanoparticles was performed using Cytotoxicity Detection Kit^Plus (LDH, Roche Diagnostics) on 50 μL of supernatant, by following the manufacturer instructions.

living U87 cells = assay: Spinning disk internalization kinetics of Cy3b-labelled siRNA; assay type: cell-based, human; details: siRNA-Cy3b 20 nM, R=20; for Incubation time to maximal fluorescence of delivered siRNA: maximal fluorescence 90%±5%, 900 s to 945 s
Protocol: For microscopy experiments, 300,000 U87 cells were seeded 24 h before imaging into glass bottom dishes (FluoroDish, World Precision Instruments). Before experiments, cells were washed twice with D-PBS and covered with 1,600 μL of complete medium. Afterwards, 400 μL of NPs (peptide:siRNA; R=20, siRNA=20 nM), formulated in an aqueous solution of 5% glucose were directly added on the cells as previously described.
For Spinning disk experiment, an inverted microscope (Nikon Ti Eclipse) coupled to a spinning disk (ANDOR) system was used to study the internalization kinetics of the NPs inside living cells. After the addition of the NPs, cells were maintained at 37° C. by a cage incubator (Okolab) and images were directly recorded every 5 s for 1,200 s with an EM-CCD camera (iXon Ultra) and projected with the Andor IQ3 software. Control experiments were performed to ensure that no emission bleed through was observed between the different channels. All images were treated with the ImageJ software.

[6] = Dynamic light scattering and zeta potential of nanoparticles; assay type: physicochemical
U87 cells [7] = assay: Cytotoxicity from Western blot internal control (vinculin) and total protein (BCA); assay type: cell-based, human; details: siCDK4 50 nM
Protocol: Western blotting. Transfected cells washed in PBS, and lysed in RIPA buffer [50 mM Tris pH 8.0, 150 mM sodium chloride, 1% Triton X-100, 0.1% SDS (sodium dodecyl sulfate, Sigma-Aldrich), including protease inhibitors (SigmaFAST, Sigma-Aldrich)]. Cells were incubated for 5 min on ice with 130 μL/24-well lysis buffer. Thereafter, cells were scrapped and transferred in a 1.5 ml tube. After 5 min on ice, the cell lysates were centrifuged (10 min, 13,400 rpm, 4° C.), supernatants were collected and protein concentrations were determined using the Pierce BCA Protein Assay (ThermoFisher). Cell extracts (0.25-0.38 μg/μL) were separated by 4-20% Mini-PROTEAN® TGX™ Precast Gel (Bio-Rad). After electrophoresis, samples were transferred onto Trans-Blot® Turbo™ Mini PVDF Transfer membrane (Bio-Rad). As antibodies (all from Cell Signaling), we used anti-cyclin B1 mouse mAb V152, anti-CDK4 rabbit mAb D9G3E, anti-Vinculin rabbit mAb E1E9V, anti-mouse IgG HRP and anti-rabbit IgG HRP. […] The signal intensities of the blots were quantified by Image J.
The cytotoxicity could be observed in Western blot using the internal control (Vinculin expression: bars in dark gray) or the total protein concentrations (measured by the BCA kit, value in red).

Substance | Conformation by circular dichroism, PEPTIDE +siRNA [2] | Conformation by circular dichroism, PEPTIDE +siRNA +charged LUVs [2] | Conformation by circular dichroism, PEPTIDE +siRNA +neutral LUVs [2] | Conformation by circular dichroism, PEPTIDE [2] | PdI [3] | Luciferase knock-down at R=40 relative to R=20 [4] | Mean size (nm) I (%) [3] | Mean size (nm) Nb (%) [3] | also measured
5′-CUU-ACG-CUG-AGU-ACU-UCG-AdTdT-3′ [siFLuc] |  |  |  |  |  |  |  |  | Knock-down efficiency of siRNA alone [1]: did not shown any knock-down efficiency
LLRLLRWWRLLRLL (CPP3) | alpha helical structure; also recorded: helix | helix | helix | turn | around 0.3 | slightly increased |  |  | 
LLRLLRWWWRLLRLL-NH2 [CPP2, LLRLLRWWWRLLRLL] | alpha helical structure; also recorded: helix | helix | helix | turn/rc |  | slightly increased | 80.0 ± 4.9 nm | 35.7 ± 7.3 nm | Reduction of firefly luciferase expression ([4]; 1 nM to 20 nM siRNA, R 20, L or D isoform): dose-dependent manner; Incubation time for maximum and saturating FLuc silencing [4]: 60 min; Reduction in the luciferase activity in presence of serum [4]: around 70%; Reduction of FLuc activity [4]: 40%; Fold more active than C6M1-L in reduced luciferase expression [4]: 3.5 fold; Fold more active than C6M1 in reduced luciferase expression [4]: 2 fold; Increase of knock-down efficiency, dilution condition versus vol:vol condition ([4]; U87 cells, siFLuc 5-20 nM): 2 fold; Cytotoxicity (U87 cells [5]): without any cytotoxicity; IC50 values of internalization (50%), incubation time (living U87 cells): 185 s; Incubation time to maximal fluorescence of delivered siRNA (living U87 cells): ~15 min; ZP (mV) ([6]; CPP:siRNA R = 20, 5% glucose with 1 mM NaCl): 28.8 ± 0.9 mV
LLRLLRWWWWRLLRLL [CPP4] | alpha helical structure; also recorded: helix | helix | helix | turn |  | slightly increased | 122.0 ± 71.5 nm | 23.6 ± 7.9 nm | 
LLRLRWWWRLRLL (CPP2-2) |  |  |  |  |  |  |  |  | Activity of nanoparticles in luciferase silencing [4]: total inactivity
LLWRLWRLLWRLWRLL-NH2 [CPP1, LLWRLWRLLWRLWRLL] | alpha helical structure; also recorded: helix | helix | helix | rc/helix |  | slightly increased | 73.3 ± 7.4 nm | 26.5 ± 4.1 nm | ZP (mV) ([3]; CPP:siRNA R = 20, 5% glucose with 5 mM NaCl): 42.2 ± 4.5 mV; Incubation time for maximum and saturating FLuc silencing [4]: 60 min; Reduction in the luciferase activity in presence of serum [4]: around 70%; Reduction of FLuc activity [4]: 40%; Fold more active than C6M1-L in reduced luciferase expression [4]: 6 fold; Fold more active than C6M1 in reduced luciferase expression [4]: 3 fold; Cytotoxicity (U87 cells [5]): without any cytotoxicity; Cytotoxicity (vinculin, total cellular proteins) (U87 cells [7]): without any cytotoxicity; IC50 values of internalization (50%), incubation time (living U87 cells): 240 s; Incubation time to maximal fluorescence of delivered siRNA (living U87 cells): ~15 min; Mean size of CPP1:MBBO nanoparticles (DLS) ([6]; R=5, 10 μM CPP1): 180 nm
LRLRWWWRLRL (CPP2-1) |  |  |  |  |  |  |  |  | Activity of nanoparticles in luciferase silencing [4]: total inactivity
RGD-Ahx-LLRLLRWWWRLLRLL (RGD[Ahx]LLRLLRWWWRLLRLL) [R-CPP2] |  |  |  |  |  |  |  |  | Reduction in the expression of luciferase ([4]; RGD-grafted peptide, R=20): ~70%
RLLRLLRWWWRLLRLLR (CPP2-6R) |  |  |  |  | 0.34 ± 0.03 |  | 59.8 ± 9.3 nm | 25.9 ± 3.9 nm | 
RLLRLLWWWLLRLLR-NH2 [CPP2-4R, RLLRLL-WWW-LLRLLR] |  |  |  |  |  |  |  |  | Cytotoxic effect inferred from variability of luciferase measurement ([4]; nanoparticle incubation): some cytotoxic effect
RLLWRLW-----LWRLLR (RLLWRLWLWRLLR; CPP1-4R) |  |  |  |  | 0.50 ± 0.04 |  | 1012 ± 984 nm | 422 ± 498 nm | 
RLLWRLWRLLWRLWRLLR (CPP1-6R) |  |  |  |  | 0.42 ± 0.08 |  | 125.3 ± 65.1 nm | 23.3 ± 3.4 nm | 
